The source of these data is ChEMBL document CHEMBL1212723, “Bioactivity-guided mapping and navigation of chemical space” (Nat Chem Biol, 2009).

Molecules are shown by their SMILES. pEC50, pIC50, pKi: −log10 of the molar value. The source made the active and inactive calls. The calls are words filed in the database; no cut-off is given here.

Experiment [1] has as its target T1, Estrogen receptor beta (Homo sapiens, UniProt Q92731). The experiment is described as follows: Binding affinity to human ERbeta ligand binding domain expressed in Escherichia coli BL21(DE3) cells assessed as recruitment of fluorescently labeled nuclear coactivator Scr1 after 1 hr by fluorescence polarization assay. Background: Fluorescence polarisation rises when a labelled molecule tumbles more slowly, as on binding a larger partner.

For experiment [2], the target named is T2, Estrogen receptor (Homo sapiens, UniProt P03372).
T2 sequence (P03372 whole entry): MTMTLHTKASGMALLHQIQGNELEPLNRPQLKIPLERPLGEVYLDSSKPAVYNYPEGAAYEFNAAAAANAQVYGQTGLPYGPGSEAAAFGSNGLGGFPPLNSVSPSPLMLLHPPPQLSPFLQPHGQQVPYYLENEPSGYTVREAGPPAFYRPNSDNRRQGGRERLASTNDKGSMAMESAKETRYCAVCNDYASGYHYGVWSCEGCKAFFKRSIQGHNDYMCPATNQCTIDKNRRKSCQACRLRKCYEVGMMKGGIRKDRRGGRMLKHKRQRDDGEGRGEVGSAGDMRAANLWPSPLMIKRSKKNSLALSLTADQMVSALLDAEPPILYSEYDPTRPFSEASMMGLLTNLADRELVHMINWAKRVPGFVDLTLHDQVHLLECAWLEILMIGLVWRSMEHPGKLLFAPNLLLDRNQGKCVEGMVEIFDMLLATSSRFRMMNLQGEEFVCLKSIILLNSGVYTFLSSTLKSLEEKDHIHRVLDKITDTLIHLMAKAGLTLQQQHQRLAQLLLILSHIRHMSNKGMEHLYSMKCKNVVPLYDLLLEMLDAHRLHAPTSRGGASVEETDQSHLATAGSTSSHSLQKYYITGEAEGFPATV

Experiment [3] concerns the target T2, Estrogen receptor. The experiment is described as follows: biochemical.
Description: Binding affinity to human ERalpha ligand binding domain expressed in Escherichia coli BL21(DE3) cells assessed as recruitment of fluorescently labeled nuclear coactivator Scr1 after 1 hr by fluorescence polarization assay
Experiment [4] concerns the target T1, Estrogen receptor beta. The experiment can be described thus: Agonist activity at human ERbeta ligand binding domain expressed in Escherichia coli BL21(DE3) cells assessed as induction of coactivator 53-protein binding by fluorescence assay.
Experiment [5] addresses T3, Polyunsaturated fatty acid 5-lipoxygenase (Homo sapiens, UniProt P09917).
T3 sequence (P09917 whole entry): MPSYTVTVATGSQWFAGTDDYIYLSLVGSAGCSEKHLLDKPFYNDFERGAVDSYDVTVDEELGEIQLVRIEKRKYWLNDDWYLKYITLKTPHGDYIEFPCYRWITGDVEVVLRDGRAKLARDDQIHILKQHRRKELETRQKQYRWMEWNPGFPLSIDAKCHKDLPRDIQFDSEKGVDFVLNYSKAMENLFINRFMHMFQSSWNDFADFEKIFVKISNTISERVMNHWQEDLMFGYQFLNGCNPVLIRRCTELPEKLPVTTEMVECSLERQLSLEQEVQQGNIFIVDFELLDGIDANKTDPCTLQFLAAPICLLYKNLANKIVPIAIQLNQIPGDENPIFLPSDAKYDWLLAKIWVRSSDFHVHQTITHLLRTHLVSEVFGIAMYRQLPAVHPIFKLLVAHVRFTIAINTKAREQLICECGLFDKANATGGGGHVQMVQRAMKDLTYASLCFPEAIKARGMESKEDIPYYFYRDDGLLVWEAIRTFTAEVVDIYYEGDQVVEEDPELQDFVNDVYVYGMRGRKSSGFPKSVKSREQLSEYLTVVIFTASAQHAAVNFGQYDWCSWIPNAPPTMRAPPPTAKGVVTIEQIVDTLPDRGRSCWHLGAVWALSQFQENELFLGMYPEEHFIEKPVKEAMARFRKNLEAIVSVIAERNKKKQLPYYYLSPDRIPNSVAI
The experiment can be described thus: Inhibition of LOX5 in human whole blood assessed as inhibition of conversion of arachidonic acid to leukotriene. Type of experiment: tissue-based.

Experiment [6] addresses T1, Estrogen receptor beta. The experiment can be described thus: Antagonist activity at human ERbeta ligand binding domain expressed in Escherichia coli BL21(DE3) cells assessed as inhibition of coactivator 53-protein binding by fluorescence assay.

T1 sequence (Q92731 whole entry, the tested form may be a part): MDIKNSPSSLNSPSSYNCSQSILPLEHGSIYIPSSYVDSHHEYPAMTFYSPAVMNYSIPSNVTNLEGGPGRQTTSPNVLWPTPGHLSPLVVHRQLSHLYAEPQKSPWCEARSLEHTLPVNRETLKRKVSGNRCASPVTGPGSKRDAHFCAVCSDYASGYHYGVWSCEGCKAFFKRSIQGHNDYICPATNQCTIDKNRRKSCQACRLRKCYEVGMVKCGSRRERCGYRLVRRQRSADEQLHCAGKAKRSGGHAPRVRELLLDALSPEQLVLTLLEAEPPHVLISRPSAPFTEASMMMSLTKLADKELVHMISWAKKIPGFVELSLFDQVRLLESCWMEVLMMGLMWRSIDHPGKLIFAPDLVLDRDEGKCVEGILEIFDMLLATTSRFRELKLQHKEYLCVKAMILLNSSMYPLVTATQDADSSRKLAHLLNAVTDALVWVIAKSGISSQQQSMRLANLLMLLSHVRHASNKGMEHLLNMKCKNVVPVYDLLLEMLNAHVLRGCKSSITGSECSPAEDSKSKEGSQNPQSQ

What is called pEC50 is −log10 of the EC50, conventionally taken in molar units. What is called pKi is the Ki on a negative log10 scale, so that one unit is a factor of ten. For the compound `O=C(N1CCc2cc(O)ccc2C1)C(F)(F)F`, the pEC50 at Estrogen receptor beta [1] is 5.34; at Estrogen receptor [3] it was 6.56. The compound also showed a pKi at Estrogen receptor [2] of 8.70. Further, the result on Estrogen receptor beta [4] was Active.

By pIC50 is commonly meant the negative decadic logarithm of the IC50, by convention in mol/L. On to `c1ccc(COc2ccc3ccccc3c2)cc1`, for which the pIC50 in experiment [5] is 5.02.

Take `O=C(N1CCc2cc(O)ccc2[C@H]1c1ccc(OCCN2CCCC2)cc1)C(F)(F)F`: the inhibition result at Estrogen receptor beta [6] was “Active”.

Turning to `CN(C)CCNC(=O)c1ccc(COc2ccc3ccccc3c2)cc1`, the pIC50 in experiment [5] was 5.52.

In the case of `O=S(=O)(c1ccccc1)N1CCc2cc(O)ccc2[C@H]1c1ccc(OCCN2CCCC2)cc1`, at Estrogen receptor beta [6], the inhibition result is “Active”.

As to `O=S(=O)(c1ccc2ccccc2c1)N1CCc2cc(O)ccc2[C@H]1c1ccc(OCCN2CCCC2)cc1`, the inhibition result at Estrogen receptor beta [6] was “Active”.
